Data on five molecules can be found in patent publication US12551500B2, “C6′-substituted locked nucleic acid-modified cap analog and use thereof” (Hangzhou Tianlong Pharmaceutical Co., Ltd., priority 2024, dated 2026).

The target of one series is T1, DCP2 enzyme (Schizosaccharomyces pombe, UniProt O13828).
T1 construct: purchased New England Biolabs
T1 sequence (O13828 1-243 limits assumed): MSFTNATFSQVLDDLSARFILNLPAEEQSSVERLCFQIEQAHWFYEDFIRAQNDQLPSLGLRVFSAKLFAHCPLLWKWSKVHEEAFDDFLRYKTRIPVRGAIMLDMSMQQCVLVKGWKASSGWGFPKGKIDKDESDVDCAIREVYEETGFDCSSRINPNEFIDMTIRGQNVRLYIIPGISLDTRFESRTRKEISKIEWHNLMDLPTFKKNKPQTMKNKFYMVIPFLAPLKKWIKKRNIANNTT
T1 sequence (Q9P805 1-127 partner): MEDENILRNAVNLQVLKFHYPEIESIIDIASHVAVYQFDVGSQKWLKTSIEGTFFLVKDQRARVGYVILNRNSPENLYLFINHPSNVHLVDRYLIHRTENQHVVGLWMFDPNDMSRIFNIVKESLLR
T1 sequence (Q10108 155-180 partner limits assumed): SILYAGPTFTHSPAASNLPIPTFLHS
In words: Decapping enzyme stability test. It counts as biochemical. The conditions noted are these: 30 pmol RNA, 50 U mRNA decapping enzyme, 37° C., 45 minutes. How it is done:
30 pmol of RNAs purified by polyacrylamide gel electrophoresis (PAGE) was subjected to an enzymatic reaction with 50 U of mRNA decapping enzyme (New England Biolabs) and 1×MDE buffer at 37° C. for 45 minutes. The enzymatic reactants were subjected to PAGE and stained with SYBR Green II (Lonza), followed by observation of the post-electrophoresis gel image on a Typhoon FLA 7000 (GE Healthcare) instrument. The electrophoresis band intensity ratio of RNA capping to RNA decapping was counted using ImageQuant (GE Healthcare) software, and the decapping rate of the decapping enzyme was calculated (as shown in Table 6).

Series [1] concerns the target T2, T7 RNA polymerase (Escherichia phage T7, UniProt P00573). In words: Capping rate of in vitro transcribed mRNA by LC-MS. It counts as biochemical. The conditions noted are these: mRNA transcribed with the cap analog, LC-MS. How it is done: (§1) YK-CAP-001 to 006 and compound 14 in Table 1 were respectively used as cap analogs.
(§2) During the experiment, the volume of materials required for the system was first calculated, and then sample addition was conducted. The system was first added with sterile enzyme-free water, followed by the sequential addition of 10× buffer, NTPs, and cap analogs, mixed well, and gently centrifuged. Nuclease inhibitors, inorganic pyrophosphatase, T7 RNA polymerase, and linearized DNA templates were then added thereto. The system was mixed well, gently centrifuged, and incubated at 37° C. After 2 hours of incubation, the system was added with 1 U of DNase I and incubated at 37° C. for another 30 minutes. The mRNA precipitate was then washed with 75% ethanol, and after the ethanol was briefly evaporated to dryness, the mRNA was redissolved in sterile enzyme-free water.
(4) The obtained mRNA was subjected to an annealing reaction with a probe.
The annealing reaction was performed in a PCR instrument: 95° C. for 5 minutes; 65° C. for 2 minutes; 55° C. for 2 minutes; 40° C. for 2 minutes; 22° C. for 2 minutes.
(5) Magnetic bead pretreatment and probe binding: 100 μL of magnetic beads was placed on a magnetic frame for pretreatment. The magnetic bead solution was added with 120 μL of sample and incubated at room temperature for 30 minutes with slow mixing.
(6) mRNA splicing and obtaining the 5′ single-strand sequence bound to the probe
The mixture was added with 20 μL of RNase H (5 U/μL) and incubated at 37° C. for 3 hours with mixing every half hour. After incubation, the magnetic beads were washed and then added with 100 μL of 75% methanol heated to 80° C. The mixture was heated to 80° C. on a heating plate, held for 3 minutes, then placed on a magnetic frame to aspirate the supernatant, and dried at room temperature for 45 minutes to a volume of 10 μL using a centrifugal evaporator. The sample was then resuspended in 50 μL of 100 μM EDTA/1% MeOH and ready for LC-MS analysis to determine the capping of RNA in the transcription reaction. Since there is a significant difference in molecular weight between capped and uncapped bases, the capping rate of mRNA transcription initiated by different cap analogs can be determined based on the difference in molecular mass.

Series [2] addresses T2, T7 RNA polymerase. The series can be described thus: In vitro transcription yield of mRNA with cap analog (co-transcriptional capping). It counts as biochemical. The conditions noted are these: in vitro transcription, 1 μg DNA template, 20 μL system, 37° C. 2 hours. How it is done:
(1) Capping synthesis using cap analogs
The plasmid was first linearized with plasmid linearizing enzyme, and then the linearized plasmid was purified.
(2) In vitro transcription and synthesis of mRNA
as §1, §2
(3) The transcription product was purified, and the in vitro transcription yield of mRNA was recorded.

A short description of series [3]: Characterization of lipid nanoparticles encapsulating Fluc-mRNA. It counts as physicochemical. The conditions noted are these: for Particle size: LNP (YK-009/DSPC/cholesterol/DMG-PEG2000) encapsulating Fluc-mRNA transcribed using the cap analog; for PDI: LNP encapsulating Fluc-mRNA transcribed using the cap analog; for EE: encapsulation efficiency of LNP encapsulating Fluc-mRNA transcribed using the cap analog. How it is done: Cationic lipid YK-009 (Beijing Youcare Kechuang Pharmaceutical Technology Co., Ltd.), DSPC (AVT (Shanghai) Pharmaceutical Technology Co., Ltd.), cholesterol (AVT (Shanghai) Pharmaceutical Technology Co., Ltd.), and DMG-PEG2000 were dissolved in ethanol at a molar ratio of 49:10:39.5:1.5, and the mRNA was diluted in 50 mM citrate buffer (pH=4). The ethanol lipid solution was mixed with the Fluc-mRNA aqueous solution prepared from different cap structures at a volume ratio of 1:3 using a microfluidic device at a flow rate of 10 mL/min to prepare LNPs at a weight ratio of total lipid to mRNA of approximately 15:1. The resulting liposomes were diluted to 10-fold volume with PBS, and then ultrafiltered with a 300 KDa ultrafiltration tube to remove ethanol. The volume was then fixed to a certain volume with PBS. Finally, the LNPs were filtered through a 0.2 μm sterile filter to obtain an LNP preparation encapsulating Fluc-mRNA using YK-009/DSPC/cholesterol/DMG-PEG2000 (at a molar ratio of 49:10:39.5:1.5).
The particle size and polydispersity index (PDI) were determined by dynamic light scattering using a Malvern laser particle size analyzer. 10 μL of the liposome solution was taken, diluted to 1 mL with RNase-free deionized water, and added to a sample pool. Each sample was measured in triplicate. The measurement conditions were: a scattering angle of 90° and a temperature of 25° C. The encapsulation efficiency of LNPs was determined using the Quant-iT RiboGreen RNA Quantification Kit (Thermo Fisher Scientific, UK) according to the manufacturer's instructions.

A further series relates to BALB/C mice. The series can be described thus: In vivo imaging of protein expressed by LNP-carrying Fluc-mRNA in mice. The settings on record: female BALB/C mice. How it is done: The LNP preparation containing […] of Fluc-mRNAs transcribed using the cap analogs YK-CAP-001 to 006 in the present disclosure and the cap analogs N-7413, compound 14, and m6A in the prior art was intramuscularly injected into female BALB/C mice aged 4 to 6 weeks and weighing 17 to 19 g. At specific time points after administration (6 hours, 12 hours, 24 hours, 48 hours, 96 hours, and 168 hours), the mice were intraperitoneally injected with fluorescence imaging substrate. The mice were then allowed to move freely for 5 minutes, followed by detection of the average radiation intensity (corresponding to the amount of protein expression) of the protein expressed by LNP-carrying mRNA in the mice using an IVIS Spectrum small-animal in vivo imaging system.

Setting [4] is: 6 h after intramuscular injection of LNP Fluc-mRNA.
Setting [5] is: 12 h after intramuscular injection of LNP Fluc-mRNA.
Setting [6] is: 24 h after intramuscular injection of LNP Fluc-mRNA.
Where [7] appears, read: 48 h after intramuscular injection of LNP Fluc-mRNA.
The mark [8] stands for this setting: 96 h after intramuscular injection of LNP Fluc-mRNA.
The mark [9] stands for this setting: 168 h after intramuscular injection of LNP Fluc-mRNA.

T2 sequence (P00573 whole entry): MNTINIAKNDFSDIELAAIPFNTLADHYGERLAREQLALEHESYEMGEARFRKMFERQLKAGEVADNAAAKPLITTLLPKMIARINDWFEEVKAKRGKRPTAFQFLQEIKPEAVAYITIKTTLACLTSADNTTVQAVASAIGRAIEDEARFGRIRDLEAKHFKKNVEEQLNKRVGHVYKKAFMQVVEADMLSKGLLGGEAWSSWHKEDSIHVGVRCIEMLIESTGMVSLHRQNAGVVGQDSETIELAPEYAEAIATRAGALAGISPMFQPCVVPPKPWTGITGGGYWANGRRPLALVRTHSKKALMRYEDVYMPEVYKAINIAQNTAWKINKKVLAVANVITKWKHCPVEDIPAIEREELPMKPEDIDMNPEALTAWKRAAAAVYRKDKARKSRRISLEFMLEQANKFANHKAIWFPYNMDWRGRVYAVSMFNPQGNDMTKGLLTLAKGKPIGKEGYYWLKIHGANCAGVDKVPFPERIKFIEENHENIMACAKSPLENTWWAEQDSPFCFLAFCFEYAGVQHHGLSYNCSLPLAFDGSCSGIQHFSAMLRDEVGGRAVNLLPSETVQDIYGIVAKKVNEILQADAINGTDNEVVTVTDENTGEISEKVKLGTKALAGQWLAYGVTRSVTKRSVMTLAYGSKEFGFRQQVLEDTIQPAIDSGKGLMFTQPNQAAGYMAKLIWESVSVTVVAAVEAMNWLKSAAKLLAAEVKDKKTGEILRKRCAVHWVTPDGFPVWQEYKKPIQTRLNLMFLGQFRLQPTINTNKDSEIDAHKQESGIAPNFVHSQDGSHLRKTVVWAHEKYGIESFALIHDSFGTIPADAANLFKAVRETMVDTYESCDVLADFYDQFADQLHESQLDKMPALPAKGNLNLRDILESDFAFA

With `COC1C(OP(=O)([O-])OC[C@H]2O[C@@H](n3cnc4c(=O)[nH]c(N)nc43)C(O)C2O)[C@@H](COP(=O)(O)OP(=O)(O)OP(=O)(O)OC[C@]23O[C@@H]([n+]4cn(C)c5c(=O)[nH]c(N)nc54)C(O[C@H]2CC#N)C3O)O[C@H]1n1cnc2c(N)ncnc21` (some centres unmarked) [YK-CAP-002], the “Decapping rate (%) of DCP2 enzyme” value at DCP2 enzyme is on record as 24.6%. At T7 RNA polymerase [1], this molecule gave a Capping rate of 70.2%. In addition, the “Yield per unit template” value on T7 RNA polymerase [2] came out at 103.1 µg. Besides, the Particle size in series [3] amounted to 86.31 nm. Further, in series [3], the PDI turned out to be 0.058. Moreover, the EE in series [3] is recorded as 93.1%. In addition, the Average radiation intensity with BALB/C mice (setting [4]) turned out to be 1466925 p/s/cm^2/sr; in the series with BALB/C mice (setting [5]) it was 801300 p/s/cm^2/sr; in the series with BALB/C mice (setting [6]), 278665 p/s/cm^2/sr; with BALB/C mice (setting [7]), 320725 p/s/cm^2/sr; in the series on BALB/C mice (setting [8]) it was 20893 p/s/cm^2/sr; with BALB/C mice (setting [9]), 9768 p/s/cm^2/sr.

`COC1C(OP(=O)([O-])OC[C@H]2O[C@@H](n3cnc4c(=O)[nH]c(N)nc43)C(O)C2O)[C@@H](COP(=O)(O)OP(=O)(O)OP(=O)(O)OC[C@]23COC(C2O)[C@H]([n+]2cn(C)c4c(=O)[nH]c(N)nc42)O3)O[C@H]1n1cnc2c(N)ncnc21` (some centres unmarked) [Compound 14, reference compound]: the “Decapping rate (%) of DCP2 enzyme” value at DCP2 enzyme is recorded as 28.8%. Further, on T7 RNA polymerase [1], the Capping rate was found to be 77.5%. Besides, the “Yield per unit template” value at T7 RNA polymerase [2] came out at 120.9 µg. The Particle size in series [3] is 102.2 nm. The PDI in series [3] came to 0.018. The molecule further had an EE in series [3] of 96.8%. In addition, the Average radiation intensity with BALB/C mice (setting [4]) is reported as 2589500 p/s/cm^2/sr; in the series with BALB/C mice (6 h after intramuscular injection of LNP Fluc-mRNA, listed as compound 14), 2,589,500 p/s/cm^2/sr; in the series on BALB/C mice (setting [5]) it was 1622075 p/s/cm^2/sr; in the series on BALB/C mice (setting [6]) it was 1099050 p/s/cm^2/sr; in the series on BALB/C mice (setting [7]) it was 946675 p/s/cm^2/sr; in the series with BALB/C mice (setting [8]) it was 57270 p/s/cm^2/sr. Also, the Average radiation intensity in the series with BALB/C mice (setting [9]) was 17828 p/s/cm^2/sr.

Consider `COC1C(OP(=O)([O-])OC[C@H]2O[C@@H](n3cnc4c(=O)[nH]c(N)nc43)C(O)C2O)[C@@H](COP(=O)(O)OP(=O)(O)OP(=O)(O)OC[C@H]2O[C@@H]([n+]3cn(C)c4c(=O)[nH]c(N)nc43)C(O)C2OC)O[C@H]1n1cnc2c(N)ncnc21` (some centres unmarked) [N-7413, reference compound], for which the “Decapping rate (%) of DCP2 enzyme” value at DCP2 enzyme is 48.6%. Further, the Particle size in series [3] was 100.5 nm. The same molecule yielded a PDI in series [3] of 0.041. The EE in series [3] was 95.4%. In addition, the Average radiation intensity was determined as 1806125 p/s/cm^2/sr in the series with BALB/C mice (setting [5]); 906625 p/s/cm^2/sr in the series on BALB/C mice (setting [6]); 710545 p/s/cm^2/sr in the series on BALB/C mice (setting [7]); 68400 p/s/cm^2/sr in the series with BALB/C mice (setting [8]); 18233 p/s/cm^2/sr with BALB/C mice (setting [9]).

For the molecule `COCC1C(O)[C@H]([n+]2cn(C)c3c(=O)[nH]c(N)nc32)O[C@@H]1COP(=O)(O)OP(=O)(O)OP(=O)(O)OC[C@H]1O[C@@H](n2cnc3c(N)ncnc32)C(OC)C1OP(=O)([O-])OC[C@H]1O[C@@H](n2cnc3c(=O)[nH]c(N)nc32)C(O)C1O` (some centres unmarked) [HN3002, reference compound], the “Decapping rate (%) of DCP2 enzyme” value on DCP2 enzyme is recorded as 23.2%. In series [3], this molecule showed a Particle size of 91.03 nm, a PDI of 0.032 and an EE of 94.8%.

With `CNc1ncnc2c1ncn2[C@@H]1O[C@H](COP(=O)(O)OP(=O)(O)OP(=O)(O)OC[C@H]2O[C@@H]([n+]3cn(C)c4c(=O)[nH]c(N)nc43)C(O)C2O)C(OP(=O)([O-])OC[C@H]2O[C@@H](n3cnc4c(=O)[nH]c(N)nc43)C(O)C2O)C1OC` (some centres unmarked) [m6A, reference compound], the “Decapping rate (%) of DCP2 enzyme” value at DCP2 enzyme is 27.5%. This molecule had a Particle size in series [3] of 89.99 nm. Moreover, in series [3], the PDI is given as 0.047. This molecule had an EE in series [3] of 94.2%. Besides, the Average radiation intensity with BALB/C mice (setting [5]) came to 702940 p/s/cm^2/sr; in the series with BALB/C mice (setting [6]), 201585 p/s/cm^2/sr; in the series with BALB/C mice (setting [7]), 238500 p/s/cm^2/sr; with BALB/C mice (setting [8]) it was 33586 p/s/cm^2/sr; in the series with BALB/C mice (setting [9]) it was 12000 p/s/cm^2/sr.
